We go through seven compounds from paper PMC12736313, “Curcumin and Resveratrol vs. Ferrocene-Modified Polyphenols: Role in Enhancing Protective Properties in Human Keratinocytes” (Pharmaceutics, 2025).

SMILES strings stand for the structures. Entries after “also recorded” stand apart in the source; their conditions may differ.

The subject of data set [1] is HaCaT cells. Nature of the data set: Apoptosis/necrosis by Muse Annexin V & Dead Cell Kit (flow cytometry). In kind it is cell-based, human. The note with it: 48 h. As to the method:
(§1) The Muse™ Annexin V & Dead Cell Kit (Cat. No. MCH100105, Millipore, Merck Darmstadt, Germany) was used to determine the percentage of HaCaT cells in four different cell populations (live, early apoptotic, late apoptotic, and dead) after treatment of cells with RSV, RF, CRC, and CF (5–100 μM; for 48 h) according to the manufacturer’s protocol. A detailed protocol was elucidated in Murati et al.. The cells were analyzed using the Muse™ Cell Analyzer (Luminex, Austin, TX, USA). For each concentration tested, 3–7 independent biological samples were analyzed.
Background: Flow cytometry measures light scatter and fluorescence of single cells or particles in a stream.

Data set [2] has as its system HaCaT cells. Briefly: Cell viability by MTT assay. The note with it: 48 h; for IC20 / IC50 / IC80: MTT method. It counts as cell-based, human. As to the method: (§2) The adherent HaCaT cell line was obtained from Cytion, Eppelheim, Germany. The HaCaT cell line was routinely grown in Dulbecco’s Modified Eagle Medium supplemented with 10% (v/v) fetal bovine serum (atmosphere of 95% air and 5% CO2 at 37 °C), obtained from Sigma-Aldrich Co., St. Louis, MO, USA. No antibiotics were used throughout the experiments. Cells were harvested with trypsin/EDTA solution (Sigma-Aldrich Co.) after reaching >70% confluence, diluted to the required density, and seeded in multiwell plates (Nunc, Roskilde, Denmark), depending on the experiments performed.
(§3) The cytotoxicity endpoints were determined by MTT (3-(4,5-dimethyl-2-thiazolyl)-2,5-diphenyl-2H-tetrazolium bromide) assay and Trypan blue method. For the MTT assay, cells were seeded in 96-well transparent flat-bottomed polystyrene plates at an initial concentration of 2.5 × 10^5 cells mL^−1 (100 μL/well) in growth medium supplemented with RSV, RF, CRC, and CF at concentrations of 5–100 μM. Concentrations were chosen based on our previously conducted research—reported cytotoxicity thresholds in HaCaT and other cell lines. RF and CF were synthesized in the Laboratory for Organic Chemistry at the University of Zagreb Faculty of Food Technology and Biotechnology, Zagreb, Croatia, while RSV and CRC were purchased from Sigma-Aldrich. After 48 h of incubation at 37 °C, cell viability was determined using the MTT assay. The absorbance was measured at 540 nm (Cary Eclipse spectrofluorimeter, Varian, Palo Alto, CA, USA). For the Trypan blue method, the cells were seeded in 6-well plates at an initial concentration of 2 × 10^4 cells mL^−1 (4 mL/well). After overnight incubation at 37 °C, the cells were treated with RSV, RF, CRC, and CF at different concentrations (5–100 μM). Cell viability was determined 48 h after treatment using the Trypan blue method. The stock solution of RSV was prepared in EtOH, while CRC and ferrocenyl analogues require DMSO due to higher lipophilicity. All stock solutions were stored at −20 °C until use. […] Cell viability is expressed as the percentage of treated cells compared to control cells. For each concentration tested, 3–15 independent biological samples were analyzed.

Data set [3] relates to HaCaT cells. Briefly: Intracellular ROS (DCFDA), UV-C-induced or endogenous. In kind it is cell-based, human. As to the method: (§4) Two approaches were used for intracellular ROS induction. The first approach involved pretreatment of HaCaT cells with RSV, RF, CRC, and CF and, after overnight incubation, treatment with 50 μM tBHP (tert-butyl hydroperoxide). The second approach included pretreatment of the cells with CRC and CF, and after overnight incubation, exposure of the cells to UV (ultraviolet)-C light (15 W; 55 V; 254 nm; PURITEC HNS Linear Lamps, HNS 15 W G13, Osram GmbH, Munich, Germany) for 3 h. In brief, HaCaT cells were seeded at a concentration of 2.5 × 10^5 cells mL^−1 in black 96-well plates (100 µL/well) in growth medium and supplemented with RSV, RF, CRC, and CF at concentrations 2.5–50 μM. The DCFDA/H2DCFDA (2′,7′-dichlorofluorescin diacetate/2′,7′-dichlorodihydrofluorescein diacetate) assay was performed according to the manufacturer’s protocol with minor modifications (Cellular ROS Assay Kit Cat. No. ab113851, Abcam, Cambridge, UK). The intracellular ROS level was determined by measuring the fluorescence intensity (λex/em = 485/535 nm; Cary Eclipse spectrofluorimeter). Cells treated with the same volume of DMSO or EtOH in which RSV, RF, CRC, and CF were dissolved, and cells treated with 50 µM tBHP served as controls. In UV experiments, cells treated with the solvent (DMSO) and exposed to UVR (ultraviolet radiation) were considered as control samples. For each concentration tested, 3–8 independent biological samples were analyzed.

Data set [4] has as its system HaCaT cells. Nature of the data set: Cell proliferation/viability by Trypan Blue exclusion method. The note with it: 48 h; for antiproliferative activity compared to RSV or CRC-treated cells: 5–100 µM. In kind it is cell-based, human. The protocol: as §2, §3
The test system of data set [5] is HaCaT cells. Briefly: Autophagy by Muse Autophagy LC3-antibody based kit (flow cytometry). In kind it is cell-based, human. To be noted: 48 h; for order of the autophagy induction ratio (from highest to lowest): 100 µM. The protocol: The Muse™ Autophagy LC3-antibody based kit (Cat. No. MCH200109, Millipore) was used to determine the induction of autophagy in HaCaT cells after treatment with RSV, RF, CRC, and CF (5–100 μM) with some minor protocol modifications. The experimental procedure for both analyses was set up as for cell viability determination by the Trypan blue method. Autophagy induction data were read based on the fluorescence intensity of the sample (using Muse™ Cell Analyzer). For each concentration tested, 3–8 independent biological samples were analyzed.

The subject of data set [6] is HaCaT cells. Briefly: Intracellular ROS (DCFDA) induced by tert-butyl hydroperoxide. To be noted: then 50 µM tBHP; for doses with statistically significant (p < 0.05) lowering of ROS levels: HaCaT pretreated overnight; for effect on ROS induced by tBHP: HaCaT pretreated with 2.5–50 µM. It counts as cell-based, human. The protocol: as §4
The nature of data set [7]: Apoptosis/necrosis by Muse Annexin V & Dead Cell Kit (flow cytometry). The note with it: human, HaCaT cells, highest concentration (100 µM), read-out: viability (live cells). It counts as cell-based, human. As to the method:
as §1

Data set [8] has as its system DNA. Set-up: method as in PMID 21388716. The note with it: cited from earlier work.
The test system of data set [9] is DNA. Set-up: method as in PMID 21388716. The note with it: cited from earlier work. The source holds these as a separate data set.
[10] abbreviates: value outside the range of the tested doses (>100 µM).
Setting [11] is: HaCaT, Trypan Blue method, from dose–response curves.
The mark [12] stands for this setting: Homo sapiens, from dose–response curves.
[13] abbreviates: Homo sapiens, HaCaT, Trypan Blue method, from dose–response curves.

Turning to `COc1cc(/C=C/C(=O)CC(=O)[c-]2cccc2)ccc1O.[Fe+2].c1cc[cH-]c1` [CF, (E)-5-(4-hydroxy-3-methoxyphenyl)-1-ferrocenylpent-4-ene-1,3-dione], the “effect on cell death / viability by flow cytometry” value in [1] (5–100 µM) is “induced cell death significantly less compared to all compounds tested; also recorded: almost no effect on cell viability”. In [2] (setting [10]), the IC20 was 121 µM, the IC50 is 208 µM and it took 273 µM to reach the 80% level (IC80). The “effect on UV-induced ROS” value in [3] (HaCaT pretreated with 2.5–50 µM, UV-C 3 h) was “did not exhibit significant antioxidant activity”. In addition, the “antiproliferative activity compared to RSV or CRC-treated cells” value in data set [4] (Trypan Blue) was “significantly lower antiproliferative activity”. In [4] (setting [11]), this compound had an IC20 of 75.4 µM. The “order of the autophagy induction ratio (from highest to lowest)” value (from here on “order of the autophagy induction ratio”) in [5] is given as “CRC > CF > RF ≈ RSV”. Moreover, the “effect on autophagy induction” value in data set [5] (5–100 µM) is listed as “reduced autophagic degradation activity; also recorded: decrease in the autophagy induction ratio”. For the same compound, in [6], the “doses with statistically significant (p < 0.05) lowering of ROS levels” value is recorded as not below 5 µM and the “effect on ROS induced by tBHP” value is on record as “most pronounced effect; also recorded: significantly reduced the ROS induced by tBHP”.

`COc1cc(/C=C/C(=O)CC(=O)/C=C/c2ccc(O)c(OC)c2)ccc1O` [CRC, (1E,6E)-1,7-bis(4-hydroxy-3-methoxyphenyl)-1,6-heptadiene-3,5-dione]: in data set [7], the viability at 48 h, 100 µM amounted to 1.08%. The “proportion of cells in early and late apoptosis” value in data set [1] (100 µM) amounted to 88.40%. Also, in data set [1] (highest concentration (100 µM)), the “proportion of cells in late apoptosis” value is 88.34% and the “proportion of cells in necrosis” value came to 10.52%. Besides, the “doses at which cell viability was almost completely impaired” value in [2] (MTT) is given as not below 50 µM. Besides, the “concentrations with statistically significant (p < 0.05) cytotoxicity” value in data set [2] (MTT, vs solvent control) was not below 20 µM. Also, in data set [2] (setting [12]), the 20% effect level (IC20) was put at 7.28 µM, half-maximal inhibition (IC50) was put at 18.9 µM and it took 34 µM to reach the 80% level (IC80). For the same compound, the “doses with protective effect against UV-induced ROS” value in [3] (HaCaT pretreated overnight, UV-C 3 h) is not below 20 µM. For the same compound, in data set [3] (HaCaT, without UV exposure), the “doses significantly (p < 0.05) reducing endogenous ROS production” value is not below 20 µM. Moreover, in data set [4] (HaCaT, Trypan Blue), the “doses at which cell viability was almost completely impaired” value is not below 50 µM. In data set [4] (setting [13]), this compound gave an IC50 of 11 µM and an IC80 of 26.4 µM. Also, the “effect on autophagy induction” value in data set [5] (100 µM (highest dose)) is recorded as “highest autophagy induction ratio; also recorded: most prominent autophagy induction ratio”. Moreover, the “order of the autophagy induction ratio” value in data set [5] is given as “CRC > CF > RF ≈ RSV”. In addition, in [6], the “doses with statistically significant (p < 0.05) lowering of ROS levels” value was not below 5 µM and the “effect on ROS induced by tBHP” value is “most pronounced effect”.

As for `COc1cc(C=CC(=O)C(=C[c-]2cccc2)C(=O)C=Cc2ccc(O)c(OC)c2)ccc1O.[Fe+2].c1cc[cH-]c1` [FCU, 1,7-bis(p-hydroxy-m-methoxyphenyl)-4-ferrocenylidene-hepta-1,6-diene-3,5-dione], the “effect on Cu2+/GSH-induced oxidation of DNA” value (shortened to “effect … of DNA”) in data set [8] is listed as “protective effects”. Also, the “inhibition of AAPH-induced oxidation of DNA” value (“inhibition” for short) in data set [9] is “in higher extent than CRC, feruloylacetone, and dehydrozingerone”.

In the case of `COc1cc(C=CC(=O)C=C[c-]2cccc2)ccc1O.[Fe+2].c1cc[cH-]c1` [FDZ, 1-(p-hydroxy-m-methoxyphenyl)-5-ferrocenyl-penta-1,4-dien-3-one], the “effect … of DNA” value in data set [8] is “protective effects”. Besides, the “inhibition” value in data set [9] was “in higher extent than CRC, feruloylacetone, and dehydrozingerone”.

With `COc1cc(C=CC(O)=CC(=O)C=C[c-]2cccc2)ccc1O.[Fe+2].c1cc[cH-]c1` [FFT, 1-(p-hydroxy-m-methoxyphenyl)-3-hydroxy-7-ferrocenyl-hepta-1,4,6-trien-5-one], the “effect … of DNA” value in [8] is given as “protective effects”. For the same compound, the “inhibition” value in data set [9] is “in higher extent than CRC, feruloylacetone, and dehydrozingerone”.

`O=C(CCC[c-]1cccc1)Oc1ccc(/C=C/c2cc(OC(=O)CCC[c-]3cccc3)cc(OC(=O)CCC[c-]3cccc3)c2)cc1.[Fe+2].[Fe+2].[Fe+2].c1cc[cH-]c1.c1cc[cH-]c1.c1cc[cH-]c1` [RF, trans-3,5,4′-tri(4-ferrocenylbutanoyloxy)-stilbene]: the “doses after which the majority of cells remained in the early apoptosis fraction” value in data set [1] is recorded as not below 5 µM. The “antiproliferative activity compared to RSV or CRC-treated cells” value in [4] (Trypan Blue) is reported as “significantly lower antiproliferative activity”. The same compound registered an IC20 in [4] (setting [11]) of 10.8 µM. Moreover, the “effect on autophagy induction” value is given as “slightly induced autophagy” in [5] (5 µM) and “lower autophagy-related LC3 protein” in data set [5] (100 µM (highest dose)). Further, the “order of the autophagy induction ratio” value in data set [5] was “CRC > CF > RF ≈ RSV”. In addition, the “effect on ROS induced by tBHP” value in [6] is recorded as “significantly reduced the ROS induced by tBHP”.

Take `Oc1ccc(/C=C/c2cc(O)cc(O)c2)cc1` [RSV, 3,4′,5-trihydroxy-trans-stilbene]: the “level of cell death through necrotic or apoptotic pathways” value in [1] (100 µM) is listed as not above 11%. The “cell survival (proportion of viable cells in the culture) vs control” value in data set [1] (100 µM, p < 0.05) is “significantly lower”. In addition, the concentration for an effect of 20% (IC20) in data set [4] (setting [13]) stood at 3.22 µM. The compound further had an IC50 in [4] (setting [13]) of 40.3 µM. The “effect on autophagy induction” value in data set [5] (20 µM, p < 0.05) is “stimulating”; in data set [5] (100 µM (highest dose)), “reducing”. The “order of the autophagy induction ratio” value in [5] was “CRC > CF > RF ≈ RSV”.

As usually defined, the IC20 is the point of the concentration-response curve where the effect stands at 20%. As usually defined, the IC50 is the point on the concentration scale where inhibition reaches its midpoint. Higher therefore signals weaker potency in that assay. Usually IC80 stands for the point of the concentration-response curve where the effect stands at 80%. Higher therefore signals a need for much substance. One may read the viability as a per cent measure of how many cells are alive, often set against a control.
